In patent US7790759B2, “Glycyrrhetinic acid-30-amide derivatives and their use” (Tianjin Institute of Pharmaceutical Research, priority 2005, dated 2010):

What was measured:
[1] = system: Influenza virus A; experiment: Influenza virus A-infected mice models; type: in vivo; settings: 100 mg/kg
[2] = system: cough; experiment: Cough-prevention: ammonia-induced cough; type: in vivo, ICR mice; settings: for Cough occurrence (x ± sd) / Inhibition rate of cough (%): 50 mg/kg intragastric; for Cough occurrence (x ± sd): ammonia 1 h after administration, observed within 5 min, n = 10; for Inhibition rate of cough (%): versus model group
Procedure: Male or female healthy ICR mice, each weighing 18-22 g, were used. They were grouped randomly into model, positive control and test groups based on body weight, with 10 animals for each group. The positive group was treated by codeine phosphate in a dose of 50 mg/kg of body weight.
After fasting for at least 12 h, the animals were intragastrically administrated: the animals in model group are administered only with 1% CMCNa in the same amount. To start the test, 1 h after administration, the mice were placed in a 500 ml container, into which a cotton ball sucking 0.3 ml of ammonia was added to cause coughing. The occurrence of cough was observed within 5 min. Inhibition rate of cough=(the cough occurrence for model group−the cough occurrence for test group)/the cough occurrence for model group×100%. (4) Aldosterone-like Side Effects

[3] = system: writhing response; experiment: Analgesic effect: acetic acid-induced writhing response; type: in vivo, ICR mice; settings: 50 mg/kg intragastric; for Writhing occurrence (x ± s): 0.6% acetic acid i.p. 1 h after administration, counted during 15 minutes, n = 10
Procedure: Male or female healthy ICR mice, each weighing 18-22 g, were used. Each mouse was injected intraperitoneally with 0.6% acetic acid in a dose of 0.2 ml one day before the test. The mice with the writhing response occurring in the range of 10-50 times were selected. The selected mice were grouped randomly into model, positive control and test groups based on the occurrence of the writhing response, with 10 animals for each group. The positive group was treated with aspirin in a dose of 50 mg/kg of body weight.
After fasting for at least 12 h, the animals were intragastrically administrated: the animals in model group are administered only with 1% CMCNa in the same amount. 1 h after administration, the mice were intraperitoneally injected with 0.6% acetic acid in a dose of 0.2 ml per animal. After 5 min, the occurrence of the writhing responses for one mouse was recorded during a period of 15 minutes. Based on the occurrence recorded, the inhibition rate of the active ingredient for writhing response was calculated. Inhibition rate=(means of the writhing occurrence for model group−means of the writhing occurrence for test group)/means of writhing occurrence for model group×100%. (3) Cough-prevention

[4] = system: swollen ear model; experiment: Anti-inflammatory effect: xylene-induced swollen ear model; type: in vivo, ICR mice; settings: 40 mg/kg, intragastric, xylene on right ear 30 min after administration; weight ratio swollen ear to normal ear; n 8-10
Procedure: Male or female healthy ICR mice, each weighing 18-20 g, were grouped randomly into model, positive control and test groups based on body weight, with 8-10 animals for each group. The positive group was treated by hydrocortisone in a dose of 40 mg/kg of body weight.
The compound of formula I to be tested was administered intragastrically at a concentration of 2 mg/ml in a 1% CMCNa solution, while a 1% CMCNa solution alone was administered to the model group in the same amount. 30 min after administration, 50 μl of xylene solution was added dropwise into the right ear of each mouse to cause an inflammation reaction. 30 min later, the mice were killed by breaking the cervical vertebrae. Both ears were excised immediately from the mices, and punched in the same position with a puncher having a diameter of 0.6 cm. The obtained ear piece was weighed. For each mouse, the weight ratio of swollen ear to normal ear was regarded as an indication for the degree of swelling. Biostatistical analysis was performed using the Student's t test.

[5] = system: paracetamol/hepatitis mice models; experiment: Liver protection in paracetamol/hepatitis mice models; settings: 100 mg/kg
[6] = Subacute toxicity within one month (death); type: in vivo; settings: 300 mg/kg of body weight for one week
Procedure: (§1) Three compounds of formula I of the invention were selected to examine their subacute toxicity within one month, with dexamethasone and glycyrrhetinic acid as control. […] Furthermore, the level of aldosterone in blood plasma was determined. The level will decrease in a negative feedback way when an agent having aldosterone-like effects is administrated.

[7] = system: aldosterone; type: in vivo; settings: subacute toxicity study
Procedure: as §1

| Structure (SMILES) | Cough occurrence (x ± sd) [2] | Inhibition rate of cough (%) [2] | Writhing occurrence (x ± s) [3] | Inhibition rate of writhing response (%) ([3]; versus model group) | Swelling degree of the swollen ear model (%) (x ± sd) [4] | also measured |
| --- | --- | --- | --- | --- | --- | --- |
| CC1(C)[C@@H](O)CC[C@]2(C)[C@H]3CC=C4[C@@H]5C[C@@](C)(C(=O)NCc6cc(-c7ccccc7Cl)no6)CC[C@]5(C)CC[C@@]4(C)[C@]3(C)CC[C@@H]12 [DG4, N-[(3-o-chlorophenyl-isoxazol-5-yl)methyl]-11-deoxy-glycyrrhetinamide] | 18.80 ± 7.04 | 32.37% | 6.56 ± 6.19 | 67.8% | – | Death rate caused by the virus infection [1]: decreased |
| Cc1ccc(-c2cc(CNC(=O)[C@@]3(C)CC[C@]4(C)CC[C@]5(C)C(=CCC6[C@@]7(C)CC[C@H](O)C(C)(C)C7CC[C@]65C)[C@@H]4C3)on2)cc1 (stereo partly shown) [DG2, N-[(3-p-methylphenyl-isoxazol-5-yl)methyl]-11-deoxy-glycyrrhetinamide] | – | – | – | – | 80.2 ± 18.8 % | – |
| Cc1ccc(-c2cc(CNC(=O)C3(C)CCC4(C)CCC5(C)C(=CC(=O)C6C7(C)CCC(O)C(C)(C)C7CCC65C)C4C3)on2)cc1 (stereo not shown) [Compound G2, N-[(3-p-methylphenyl-isoxazol-5-yl)methyl]-glycyrrhetinamide] | – | – | – | – | 68.6 ± 29.5 % | – |
| C[C@]12CCC(=O)C=C1CC[C@@H]1[C@@H]2[C@@H](O)C[C@@]2(C)[C@H]1CC[C@]2(O)C(=O)CO [hydrocortisone, reference compound] | – | – | – | – | 55.7 ± 35.4 % | – |
| COc1ccccc1-c1cc(CNC(=O)C2(C)CCC3(C)CCC4(C)C(=CCC5C6(C)CCC(O)C(C)(C)C6CCC54C)C3C2)on1 (stereo not shown) [DG6, N-[(3-o-methoxyphenyl-isoxazol-5-yl)methyl]-11-deoxy-glycyrrhetinamide] | 22.60 ± 9.56 | 18.71% | 8.00 ± 6.48 | 60.7% | 64.4 ± 29.2 % | GPT [5]: decreased |
| CC1(C)[C@@H](O)CC[C@]2(C)[C@H]3C(=O)C=C4[C@@H]5C[C@@](C)(C(=O)O)CC[C@]5(C)CC[C@@]4(C)[C@]3(C)CC[C@@H]12 [glycyrrhetinic acid] | – | – | – | – | – | Death in subacute toxicity test [6]: no death was observed; Aldosterone level in blood plasma (ng/ml) (x ± sd) ([7]; 300 mg/kg, n = 8): 68.3 ± 12.5 ng/mL; Aldosterone-like effects (decrease of plasma aldosterone by negative feedback) [7]: confirmed the aldosterone-like effects |
| COc1ccccc1-c1cc(CNC(=O)C2(C)CCC3(C)CCC4(C)C(=CC(=O)C5C6(C)CCC(O)C(C)(C)C6CCC54C)C3C2)on1 (stereo not shown) [Compound G6, N-[(3-o-methoxyphenyl-isoxazol-5-yl)methyl]-glycyrrhetinamide] | – | – | – | – | 53.4 ± 35.2 % | – |
| COc1ccccc1-c1cc(CNC(=O)[C@@]2(C)CC[C@]3(C)CC[C@]4(C)C(=CC(=O)[C@@H]5[C@@]6(C)CC[C@H](OC(C)=O)C(C)(C)[C@@H]6CC[C@]54C)[C@@H]3C2)on1 [RG1, N-[(3-o-methoxyphenyl-isoxazol-5-yl)methyl]-3-acetoxy-glycyrrhetinamide] | 17.64 ± 6.34 | 36.55% | – | – | – | – |
| CC1(C(=O)NCc2cc(-c3ccc(F)cc3)no2)CCC2(C)CCC3(C)C(=CCC4C5(C)CCC(O)C(C)(C)C5CCC43C)C2C1 (stereo not shown) [DG3, N-[(3-p-fluorophenyl-isoxazol-5-yl)methyl]-11-deoxy-glycyrrhetinamide] | 17.70 ± 7.10 | 36.33% | 18.33 ± 13.56 | 9.8% | 56.1 ± 28.3 % | – |
| CC1(C(=O)NCc2cc(-c3ccc(O)cc3)no2)CCC2(C)CCC3(C)C(=CC(=O)C4C5(C)CCC(O)C(C)(C)C5CCC43C)C2C1 (stereo not shown) [Compound G1, N-[(3-p-hydroxylphenyl-isoxazol-5-yl)methyl]-glycyrrhetinamide] | 28.20 ± 15.39 | −1.44% | 16.33 ± 10.57 | 19.7% | – | – |
| CC1(C(=O)NCc2cc(-c3ccc(F)cc3)no2)CCC2(C)CCC3(C)C(=CC(=O)C4C5(C)CCC(O)C(C)(C)C5CCC43C)C2C1 (stereo not shown) [Compound G3, N-[(3-p-fluorophenyl-isoxazol-5-yl)methyl]-glycyrrhetinamide] | – | – | – | – | 60.8 ± 27.9 % | – |
| COc1ccc2c3c1O[C@H]1[C@@H](O)C=C[C@H]4[C@@H](C2)N(C)CC[C@@]341 [codeine phosphate, reference compound] | 8.40 ± 8.95 | – | – | – | – | inhibition at 50 mg/kg ([2]; Mus musculus, po, read-out: Inhibition rate of cough (%)): 69.8% |
| Cc1cc(CNC(=O)C2(C)CCC3(C)CCC4(C)C(=CCC5C6(C)CCC(O)C(C)(C)C6CCC54C)C3C2)on1 (stereo not shown) [DG7, N-[(3-methyl-isoxazol-5-yl)methyl]-11-deoxy-glycyrrhetinamide] | 20.40 ± 14.31 | 26.62% | 15.78 ± 12.43 | 22.4% | – | – |
| CC(=O)Oc1ccccc1C(=O)O [aspirin, reference compound] | – | – | 5.44 ± 5.87 | – | – | inhibition at 50 mg/kg ([3]; Mus musculus, po, versus model group, read-out: Inhibition rate of writhing response (%)): 73.2% |
| C[C@@H]1C[C@H]2[C@@H]3CCC4=CC(=O)C=C[C@]4(C)[C@@]3(F)[C@@H](O)C[C@]2(C)[C@@]1(O)C(=O)CO [dexamethasone] | – | – | – | – | – | Death in subacute toxicity test [6]: All the animals died |
| CC1(C(=O)NCc2cc(-c3cccc(Cl)c3)no2)CCC2(C)CCC3(C)C(=CCC4C5(C)CCC(O)C(C)(C)C5CCC43C)C2C1 (stereo not shown) [DG8, N-[(3-m-chlorophenyl-isoxazol-5-yl)methyl]-11-deoxy-glycyrrhetinamide] | 17.90 ± 8.21 | 35.61% | 15.89 ± 16.67 | 21.9% | – | – |
